Source: patent US10239871B2, “Compounds and methods for regulating integrins” (ADHAERE PHARMACEUTICALS, INC., priority 2012, dated 2019)

What was measured:
CD11b/CD18 = CD11b/CD18 (Homo sapiens, UniProt P11215); assay: Cell adhesion assay, K562 WT cells on immobilized fibrinogen; assay type: cell-based; design: K562 cells stably transfected with plasmid encoding wild-type integrin CD11b/CD18; expressed in transfected cells; details: vs basal Ca2+ plus Mg2+ (1 mM each); leukadherins 15 μM, mAbs 20 μg/mL, Mn2+ 1 mM
Method: K562 cells stably transfected with plasmid encoding wild-type integrin CD11b/CD18 (K562 WT cells) have been described previously and were maintained in Iscove's Modified Dulbecco's Medium (IMDM) supplemented with 10% FBS and G418 (0.5 mg/ml). The murine macrophage cell line (RAW 264.7 cells) was obtained from ATCC and the cells were maintained in DMEM supplemented with 10% heat-inactivated FBS according to the manufacturer's instructions. The primary rat peritoneal macrophages were isolated from the wild type Fisher 344 rats that had been previously injected with 5 mL of Brewer's thioglycolate broth (Sigma-Aldrich). Macrophage purity was directly analyzed by single channel flow cytometry using rat macrophage specific monoclonal antibodies ED1 (AbD Serotec, Raleigh, N.C.), WT.5 (BD Biosciences) and His36 (BD Biosciences). Purity was typically >85%. Macrophages were used in assays immediately upon isolation.
Cell adhesion assays using K562 WT, murine RAW 264.7 cells and the primary rat macrophages were performed as previously described and used immobilized fibrinogen as the ligand of CD11b/CD18 [49]. […] The remaining adherent cells were fixed using 4% formaldehyde and quantified by imaging microscopy as previously described (22, 63). […]

[1] = test system: neutrophils, hepatocytes, hERG; assay: Pilot in vitro ADME assay (neutrophils, hepatocytes, hERG); details: at up to 100 µM
[2] = test system: MAPK signaling (pERK, pJNK) in K562 WT cells; assay: Western blotting of pERK and pJNK in K562 WT cells; assay type: cell-based, human; details: absence of ligand fibrinogen
Method: K562 WT cells were incubated with LA1, LA2, LA15 (15 μM), or fibrinogen (200 μg) in serum-free medium for 1 hour at 37° C. Cell lysates were resolved on 4-12% NuPAGE Bis-Tris SDS-PAGE gels using MES running buffer and transferred to a polyvinylidene difluoride (PVDF) membrane (ThermoScientific) using established protocols. Membranes were incubated with a 1:1,000 dilution of the anti-phospho-protein antibodies (anti phospho-p44/42 MAPK (pERK1/2) antibody (Thr202/Tyr204, Cell Signaling) or anti-phospho-SAPK/JNK (pJNK) antibody (Thr183/Tyr185, Cell Signaling #81E11)), or with an antibody against either total ERK1/2 (p44/42 MARK (Erk1/2), Cell Signaling #137F5) or total JNK (SAPK/JNK, Cell Signaling #56G8) and developed according to the manufacturer's instructions (ThermoScientific). Proteins were quantified by densitometry using ImageJ software. […]
Second, an effect of integrin ligation, macro clustering and redistribution in the plasma membrane is the triggering of outside-in intracellular signaling in cells via various MAPKs. […] In FIGS. 6A-6B, immunoblot results from two independent experiments were quantified using ImageJ software and ratio of phosphorylated protein to total protein was determined. Histograms showing this quantitation for each set are also shown. […] In FIGS. 6C-6D, immunoblot results from two independent experiments were quantified and are also shown, as in 6A and 6B.

For `O=C(O)c1ccc(-c2ccc(/C=C3\SC(=S)N(Cc4ccccc4)C3=O)o2)cc1` [LA1], the “adhesion of K562 WT cells to immobilized fibrinogen” value (CD11b/CD18) was “significantly increased”, the “adverse findings in pilot in vitro ADME assay” value [1] was “no adverse findings” and the “phosphorylated ERK (pERK) and phosphorylated JNK (pJNK)” value [2] was “did not induce any significant pERK or pJNK”.
